Data reported in the NIST ThermoML archive (doi:10.1016/j.jct.2005.04.019).

Experiments:
[1] = xn = mol fraction of the nth substance listed; conditions: 298.15 K, 101 kPa, Liquid; for speed of sound: Quartz crystal interferometer (Mittal Enterprises, India)
[2] = 298.15 K, 101.33 kPa, Liquid; for viscosity: Capillary tube (Ostwald / Ubbelohde) method; for mass density: Vibrating tube method; for speed of sound: Quartz crystal interferometer (Mittal Enterprises, India)

CCCC(C)O (stereo unspecified) [pentan-2-ol] + CC1CCCCC1
[1]
Conditions | mass density [kg/m3] | speed of sound [m/s] | viscosity [mPa·s]
x2 = 0.067 | 801.75 | – | 2.764
x2 = 0.1011 | 799.88 | – | 2.501
x2 = 0.1026 | – | 1227 | –
x2 = 0.1561 | 796.91 | – | 2.148
x2 = 0.2018 | – | 1219 | –
x2 = 0.2088 | 794.12 | – | 1.863
x2 = 0.2653 | 791.21 | – | 1.618
x2 = 0.2991 | 789.53 | – | 1.488
x2 = 0.3077 | – | 1211 | –
x2 = 0.3581 | 786.7 | – | 1.317
x2 = 0.3974 | 784.89 | – | 1.219
x2 = 0.3999 | – | 1206 | –
x2 = 0.4481 | 782.64 | – | 1.113
x2 = 0.4885 | 780.93 | – | 1.044
x2 = 0.4976 | – | 1203 | –
x2 = 0.5997 | – | 1202 | –
x2 = 0.6007 | 776.49 | – | 0.901
x2 = 0.6973 | 773.05 | – | 0.819
x2 = 0.6984 | – | 1204 | –
x2 = 0.8001 | 769.78 | – | 0.75
x2 = 0.8007 | – | 1207 | –
x2 = 0.8981 | 767.12 | – | 0.704
x2 = 0.8998 | – | 1211 | –
x2 = 0.9488 | – | 1211 | –

CCCCCC(C)O (stereo unspecified) [2-heptanol]
[2]
Conditions | mass density [kg/m3] | viscosity [mPa·s]
– | 813.33 | 5.346

CC1CCCCC1 [methylcyclohexane]
[2]
Conditions | mass density [kg/m3] | speed of sound [m/s] | viscosity [mPa·s]
– | 764.99 | 1209 | 0.683

CCO [ethanol]
[2]
Conditions | mass density [kg/m3] | speed of sound [m/s] | viscosity [mPa·s]
– | 785.32 | 1145 | 1.093

CCC(C)O (stereo unspecified) [butan-2-ol]
[2]
Conditions | mass density [kg/m3] | speed of sound [m/s] | viscosity [mPa·s]
– | 802.54 | 1213 | 2.907

CC1CCCCC1 [methylcyclohexane] + CC(C)O
[1]
Conditions | mass density [kg/m3] | speed of sound [m/s] | viscosity [mPa·s]
x1 = 0.0648 | 778.57 | – | 1.771
x1 = 0.1102 | 776.98 | – | 1.589
x1 = 0.1123 | – | 1143 | –
x1 = 0.1475 | 775.78 | – | 1.462
x1 = 0.2041 | 774.1 | – | 1.315
x1 = 0.2053 | – | 1143 | –
x1 = 0.2422 | 773.07 | – | 1.232
x1 = 0.303 | 771.57 | – | 1.113
x1 = 0.3034 | – | 1144 | –
x1 = 0.3511 | 770.5 | – | 1.034
x1 = 0.3937 | – | 1148 | –
x1 = 0.3947 | 769.61 | – | 0.975
x1 = 0.4603 | 768.4 | – | 0.896
x1 = 0.4954 | 767.81 | – | 0.86
x1 = 0.5031 | – | 1155 | –
x1 = 0.5589 | 766.86 | – | 0.801
x1 = 0.578 | 766.6 | – | 0.789
x1 = 0.5788 | – | 1160 | –
x1 = 0.6707 | 765.53 | – | 0.734
x1 = 0.6715 | – | 1168 | –
x1 = 0.7466 | – | 1176 | –
x1 = 0.7715 | – | 1178 | –
x1 = 0.7727 | 764.75 | – | 0.695
x1 = 0.8299 | – | 1184 | –
x1 = 0.8993 | – | 1194 | –
x1 = 0.9011 | 764.45 | – | 0.679
x1 = 0.9472 | – | 1201 | –

CCCCCC(C)O (stereo unspecified) [2-heptanol] + CC1CCCCC1
[1]
Conditions | mass density [kg/m3] | speed of sound [m/s] | viscosity [mPa·s]
x2 = 0.0998 | – | 1278 | –
x2 = 0.103 | 808.34 | – | 3.935
x2 = 0.1479 | – | 1272 | –
x2 = 0.1524 | 805.84 | – | 3.415
x2 = 0.206 | – | 1263 | –
x2 = 0.2071 | 803.04 | – | 2.945
x2 = 0.2564 | 800.53 | – | 2.587
x2 = 0.3047 | 798.08 | – | 2.287
x2 = 0.3053 | – | 1250 | –
x2 = 0.3558 | 795.52 | – | 2.013
x2 = 0.3966 | – | 1239 | –
x2 = 0.4019 | 793.23 | – | 1.817
x2 = 0.4469 | 791.02 | – | 1.649
x2 = 0.4951 | 788.67 | – | 1.49
x2 = 0.5005 | – | 1229 | –
x2 = 0.5969 | 783.72 | – | 1.225
x2 = 0.5973 | – | 1223 | –
x2 = 0.7017 | – | 1223 | –
x2 = 0.703 | 778.57 | – | 1.017
x2 = 0.7974 | – | 1222 | –
x2 = 0.7979 | 773.96 | – | 0.879
x2 = 0.8883 | 769.71 | – | 0.773
x2 = 0.9017 | – | 1219 | –
x2 = 0.9514 | – | 1215 | –

CCCCC(C)O (stereo unspecified) [2-hexanol] + CC1CCCCC1
[1]
Conditions | mass density [kg/m3] | speed of sound [m/s] | viscosity [mPa·s]
x2 = 0.1002 | – | 1252 | –
x2 = 0.1017 | 804.9 | – | 3.089
x2 = 0.1514 | 802.31 | – | 2.701
x2 = 0.2026 | 799.67 | – | 2.344
x2 = 0.2041 | – | 1239 | –
x2 = 0.2473 | 797.41 | – | 2.082
x2 = 0.2837 | – | 1231 | –
x2 = 0.2995 | 794.85 | – | 1.836
x2 = 0.3508 | 792.24 | – | 1.632
x2 = 0.3521 | – | 1225 | –
x2 = 0.3989 | – | 1222 | –
x2 = 0.4019 | 789.75 | – | 1.468
x2 = 0.452 | 787.34 | – | 1.345
x2 = 0.4948 | – | 1216 | –
x2 = 0.4972 | 785.2 | – | 1.227
x2 = 0.5955 | 780.68 | – | 1.052
x2 = 0.5978 | – | 1212 | –
x2 = 0.6904 | – | 1209 | –
x2 = 0.6956 | 776.28 | – | 0.917
x2 = 0.808 | – | 1208 | –
x2 = 0.8089 | 771.63 | – | 0.798
x2 = 0.8967 | – | 1214 | –
x2 = 0.8987 | 768.24 | – | 0.729
x2 = 0.9509 | – | 1215 | –

CC1CCCCC1 [methylcyclohexane] + CCC(C)O
[1]
Conditions | mass density [kg/m3] | speed of sound [m/s] | viscosity [mPa·s]
x1 = 0.0988 | – | 1207 | –
x1 = 0.1026 | 796.47 | – | 2.207
x1 = 0.1536 | 793.6 | – | 1.933
x1 = 0.2015 | 791.01 | 1199 | 1.72
x1 = 0.2544 | 788.28 | – | 1.509
x1 = 0.3058 | – | 1193 | –
x1 = 0.3307 | 784.56 | – | 1.281
x1 = 0.3604 | 783.2 | – | 1.216
x1 = 0.3993 | – | 1190 | –
x1 = 0.4086 | 781.07 | – | 1.107
x1 = 0.4679 | 778.61 | – | 1.002
x1 = 0.5007 | – | 1189 | –
x1 = 0.5012 | 777.3 | – | 0.953
x1 = 0.5872 | 774.19 | – | 0.856
x1 = 0.6001 | – | 1189 | –
x1 = 0.6926 | 770.91 | – | 0.77
x1 = 0.7 | – | 1192 | –
x1 = 0.7737 | – | 1196 | –
x1 = 0.7844 | 768.54 | – | 0.729
x1 = 0.8916 | 766.35 | – | 0.696
x1 = 0.8996 | – | 1203 | –
x1 = 0.9489 | – | 1206 | –

CCCCCCC(C)O (stereo unspecified) [2-octanol] + CC1CCCCC1
[1]
Conditions | mass density [kg/m3] | speed of sound [m/s] | viscosity [mPa·s]
x2 = 0.1001 | – | 1292 | –
x2 = 0.1006 | 811.52 | – | 4.941
x2 = 0.1185 | 810.68 | – | 4.692
x2 = 0.1672 | 808.39 | – | 4.097
x2 = 0.2032 | – | 1282 | –
x2 = 0.2104 | 806.32 | – | 3.651
x2 = 0.2489 | 804.45 | – | 3.308
x2 = 0.2536 | 804.22 | – | 3.263
x2 = 0.3003 | – | 1269 | –
x2 = 0.3171 | 801.09 | – | 2.769
x2 = 0.347 | 799.59 | – | 2.58
x2 = 0.3979 | 797.02 | – | 2.268
x2 = 0.4001 | – | 1258 | –
x2 = 0.4503 | 794.35 | – | 2.022
x2 = 0.5043 | – | 1247 | –
x2 = 0.5168 | 790.9 | – | 1.72
x2 = 0.5766 | 787.77 | – | 1.5
x2 = 0.5969 | 786.69 | – | 1.443
x2 = 0.5973 | – | 1239 | –
x2 = 0.684 | 782.06 | – | 1.199
x2 = 0.6889 | – | 1231 | –
x2 = 0.8058 | 775.5 | – | 0.943
x2 = 0.8109 | – | 1222 | –
x2 = 0.9002 | 770.39 | – | 0.793
x2 = 0.9008 | – | 1219 | –
x2 = 0.9466 | – | 1216 | –

CCCC(C)O (stereo unspecified) [pentan-2-ol]
[2]
Conditions | mass density [kg/m3] | speed of sound [m/s] | viscosity [mPa·s]
– | 805.4 | 1235 | 3.421

CCCCCCC(C)O (stereo unspecified) [2-octanol]
[2]
Conditions | mass density [kg/m3] | viscosity [mPa·s]
– | 816.13 | 6.568

CCCCC(C)O (stereo unspecified) [2-hexanol]
[2]
Conditions | mass density [kg/m3] | viscosity [mPa·s]
– | 810.25 | 4.204

CC1CCCCC1 [methylcyclohexane] + CCO
[1]
Conditions | mass density [kg/m3] | speed of sound [m/s] | viscosity [mPa·s]
x1 = 0.0499 | 782.02 | – | 1.034
x1 = 0.1024 | 779.14 | – | 0.987
x1 = 0.1037 | – | 1146 | –
x1 = 0.1492 | 776.99 | – | 0.949
x1 = 0.1893 | – | 1151 | –
x1 = 0.194 | 775.25 | – | 0.915
x1 = 0.2467 | 773.53 | – | 0.886
x1 = 0.313 | 771.77 | – | 0.853
x1 = 0.3143 | – | 1157 | –
x1 = 0.3363 | 771.24 | – | 0.841
x1 = 0.4007 | – | 1162 | –
x1 = 0.4015 | 769.94 | – | 0.81
x1 = 0.4438 | 769.21 | – | 0.79
x1 = 0.4752 | 768.72 | – | 0.776
x1 = 0.4788 | – | 1166 | –
x1 = 0.5844 | 767.23 | – | 0.732
x1 = 0.5884 | – | 1173 | –
x1 = 0.6993 | – | 1181 | –
x1 = 0.7002 | 765.95 | – | 0.692
x1 = 0.8147 | 765.03 | – | 0.672
x1 = 0.8209 | – | 1191 | –
x1 = 0.8864 | 764.74 | – | 0.667
x1 = 0.8943 | – | 1196 | –
x1 = 0.9473 | – | 1202 | –

CC(C)O [propan-2-ol]
[2]
Conditions | mass density [kg/m3] | speed of sound [m/s] | viscosity [mPa·s]
– | 781.06 | 1142 | 2.098
